Laboratory results reported in patent US10266511B2, “No-releasing nitrooxy-chromene conjugates” (priority 2014, dated 2019).

The molecules below were run on PGE2 production (assay: Rat air-pouch model for acute inflammation (exudate PGE2 by ELISA)). Details: oral gavage 0.01 mmol/kg 2 h before carrageenan, exudate 4 h after carrageenan.
Assay type: in vivo, Sprague-Dawley rats
Protocol: A study of chromene release is assessed by measurement of PGE2 levels, which are indicative of inflammatory response. Compounds of the present invention lower the inflammatory response by selective COX-2 inhibition, decreasing PGE-2 levels in patients.
Animals: Sprague-Dawley rats (Charles River Laboratories, R #3234, PO #738990, male, 160-180 g) are received, individually examined, and housed in cages of five rats each. The rats are ear notched for identification purposes.
Compounds and dosing solutions: The vehicle is prepared by dissolving 40 g (2-hydroxypropyl)-β-cyclodextrin (HP-β-CD, Sigma, Cat. 332593, lot MKBJ5858V) in 160 mL sterile saline for injection, USP (Hospira, lot 26-801-FW) making a 25% solution which is filter sterilized (0.2 μm, Nalgene, Cat. 151-4020, lot 1095610). A 1% carrageenan solution is prepared by dissolving 0.6 g λ-carrageenan (Fluka, Cat. 22049, lot 1318338) in hot 60 mL sterile saline for injection, USP. This solution is stored at 4-8° C. Test compounds are dissolved in DMSO (Fisher Scientific, Cat. D128-500, lot 874999) to make 75 mM stocks. 0.25 mL of compound DMSO stocks are mixed with 12.5 mL of HP-β-CD solution at 50° C. (maximum DMSO concentration is 2% of the final volume of vehicle,). […]
Day 6—Compound administration and carrageenan insult: At commencement of the study, each rat is weighed and sorted into treatment groups of 5 rats/group based upon average weight. […] The pouch is gently massaged, the exudate immediately removed, and exudate volume recorded. […]
Data analysis: The exudate samples are thawed to room temperature and assayed by ELISA for PGE2 (R&D Systems, Cat. KGE004B, lot 307711). Statistical significance of treatments on mean exudate volumes are determined by comparison of means for treatment groups with vehicle group. Mean cytokine concentrations and standard deviations are determined for each group. Statistical significance of treatments on cytokine concentrations are determined for each compound group compared to vehicle group. Statistical significance (p-value) is calculated vs control groups by Student's t-Test. […]
With `CC(C)(C)c1cc2c(cc1Cl)C=C(C(=O)OC(CO[N+](=O)[O-])CO[N+](=O)[O-])C(C(F)(F)F)O2` (stereo not drawn) [Example 22a, 1,3-bis(Nitrooxy)propan-2-yl 7-(tert-butyl)-6-chloro-2-(trifluoromethyl)-2H-chromene-3-carboxylate] the “% Inhibition of PGE2 production relative to control (+/−S.D.)” value was 75.4 (+/−9.1) %.
In the case of `CC(C)(C)c1cc2c(cc1Cl)C=C(C(=O)O[C@H]1CO[C@H]3[C@@H]1OC[C@H]3O[N+](=O)[O-])[C@@H](C(F)(F)F)O2` [Example 33, (S)-(3S,3aR,6R,6aS)-6-(nitrooxy)hexahydrofuro[3,2-b]furan-3-yl 7-(tert-butyl)-6-chloro-2-(trifluoromethyl)-2H-chromene-3-carboxylate], the “% Inhibition of PGE2 production relative to control (+/−S.D.)” value is reported as 91.8 (+/−4.9) %.
`CC(C)(C)c1cc2c(cc1Cl)C=C(C(=O)O[C@H]1CO[C@H]3[C@@H]1OC[C@H]3O[N+](=O)[O-])C(C(F)(F)F)O2` (stereo partly drawn) [Example 33a, (3S,3aR,6R,6aS)-6-(nitrooxy)hexahydrofuro[3,2-b]furan-3-yl 7-(tert-butyl)-6-chloro-2-(trifluoromethyl)-2H-chromene-3-carboxylate] was tested, and the “% Inhibition of PGE2 production relative to control (+/−S.D.)” value was 76.7 (+/−7.8) %.
